Reference: patent publication US6524820B1, “Lectins and coding sequences” (University of Georgia Research Foundation, Inc., priority 1997, dated 2003)

Assays:
recombinant XL35 [1] = test: Inhibition of XL35 erythrocyte agglutination activity; type: cell-based, Xenopus laevis; settings: 2 M urea
Protocol: The assay was performed essentially as described using trypsinized, glutaraldehyde-fixed rabbit erythrocytes [Barondes and Roberson (1987) Methods Enzymol. 138, 516-20] in TCS buffer (10 mM Tris, pH 7.6, 10 mM CaCl2, 150 mM NaCl). To compare the agglutination properties of both the purified and recombinant lectins, the two lectins were assayed under similar conditions. Because the eluted recombinant lectin was in 8 M urea, a solution of purified non-recombinant lectin was also brought to 8 M with a concentrated urea solution. The agglutination assay was performed using […] of either recombinant or native XL35 lectin in […] TCS and 8 M urea was added to wells of a 96-well microtiter plate. Next, […] of TCS alone or TCS containing 0.4 M EDTA or 1.0 M melibiose or 1.0 M sucrose was added to the wells and mixed with the lectin solution. To this solution, 50 ml of a 1:1 suspension of trypsinized, glutaraldehyde-fixed rabbit erythrocytes in TCS was added and the contents of the wells were mixed by trituration. The final concentration of urea in the wells was 2 M, while that of EDTA was 0.10 M and that of melibiose and sucrose were 0.25 M. Agglutination activity was scored after 1.5 hr. at room temperature using an inverted microscope on low power. After 1.5 hr in TCS plus 2 M urea, the purified oocyte lectin retained about 25-50% of the agglutination activity observed when it was assayed in TCS alone, but the relative abilities of various sugars to inhibit the agglutination reaction were similar in the presence or absence of urea. The recombinant lectin precipitated in the absence of urea; therefore, at least 2 M urea was used in the agglutination assay.

recombinant XL35 [2] = settings: in the presence of Ca++; literature (Clark 1987); cited from earlier work

| Compound | inhibition of recombinant XL35 agglutination activity (recombinant XL35 [1]; inhibitor at 0.1 M) | inhibition of agglutination of trypsinized rabbit erythrocytes by frog oocyte lectins (recombinant XL35 [2]) | inhibition of recombinant XL35 agglutination activity (recombinant XL35 [1]; inhibitor at 0.25 M) |
| --- | --- | --- | --- |
| O=C(O)CN(CCN(CC(=O)O)CC(=O)O)CC(=O)O [EDTA] | completely inhibited |  |  |
| OC[C@H]1O[C@H](OCC2O[C@@H](O)[C@H](O)[C@@H](O)[C@@H]2O)[C@H](O)[C@@H](O)[C@H]1O (stereo partly shown) [melibiose] |  | strongly inhibited | completely inhibited |
| OC[C@H]1O[C@@](CO)(O[C@H]2O[C@H](CO)[C@@H](O)[C@H](O)[C@H]2O)[C@@H](O)[C@@H]1O [sucrose] |  |  | not |
